Experiments:
α-Mannosidase = test: Plasma protocol: labeled ethanol released in headspace of plasma after adding probe; format: biochemical, human; conditions: Ethanol-D5; Cocktail 3; 10^−3/10^−4 mol·L^−1; Splitless
Source text: (§1) In advance, the enzymatic activities present in the blood samples of 7 healthy volunteers aged 20 to 30 years were studied by means of two cocktails of distinct probes (Table 6). This study had the objective (1) to set the final composition of the cocktails, (2) to define the concentrations of the probes to add to blood samples to obtain a significant isotope response knowing that this response would not be linked to spontaneous hydrolysis of the corresponding probes, (3) to define the optimal kinetic point, (4) to have an idea of the range of response of the isotopes of ethanol in healthy plasma samples.
(§2) Furthermore, two samples per patient were carried out in order to study the potential impact on the enzymatic activities here targeted of holding the samples at room temperature for several hours (an action which can take place in hospital conditions). Thus, the first sample was transformed into plasma and then frozen in the hour following the blood sampling. The second was reserved for 5 h at […], before treatment and then freezing. The samples were all stored at −20° C. until analysis.
(§3) According to the plasma protocol described above, the probes were used to detect the six enzymatic activities in these samples. […] The VOCs trapped on the SPME fiber are then analyzed by GC-TQMS according to the parameters defined in Tables 4 and 5. […]

[1] = tested on: β-glucuronidase present in the extracellular matrix; test: Ethanol-D5 in headspace of mouse tumor (MDA-MB-231, KB) and healthy liver biopsies after adding probe; conditions: probe 10^−9, 10^−8 and 10^−6 M
Method: Thus, tests during which the tumoral and healthy biopsies were placed in the presence of decreasing concentrations of D5-ethyl-β-D-glucuronide were carried out. The probe concentration retained corresponded to the concentration for which no response of healthy tissues was obtained, whereas an enzymatic response was observed on cancer tissues.
In the context of this work, two tumor biopsies, taken on mouse models, were studied (MDA-MB-231: human breast cancer cells, KB: human nasopharynx cancer cells). Two mouse liver biopsies were used as healthy tissues. Probe solutions at 10^−7, 10^−6, 10^−4 and 10^−2 M were prepared in a PBS buffer (137 mM NaCl, 2.7 mM KCl, 10 mM Na2HPO4, 1.8 mM KH2PO4, pH 7.4).
The biopsies were rinsed with 500 μL of PBS and then placed in a vial with an insert of 2 mL. A volume of 297 μL of PBS was added to the vial. The volatile molecules present in the headspace of the vial were trapped for 30 min in order to ensure that no ethanol-D5 was detected. Then 3 μL of probe at […] were added (final probe concentration in the vial of […]). After hermetic closure and vortex agitation, the volatile compounds were preconcentrated on SPME fiber (Car/PDMS, Supelco) for 30 min and then analyzed by GC-TQMS (analysis conditions described in Table 2).

[2] = biological target: T1, β-glucuronidase of E. coli (Escherichia coli, UniProt P05804); test: Limit of detection of model β-glucuronidase in plasma matrix with the VOC probe (SPME, GC-TQMS of ethanol-D5); format: biochemical
T1 construct: purchased Sigma Aldrich
Method: (§4) The plasma (approximately […]) is extracted and stored at −20° C. until analysis. An aliquot of 25 μL of plasma is sampled and inserted into a […] with an insert. This biological sample is added to 50 μL of acetate buffer solution (pH 5), protease inhibitor (1×) and 25 μL probe D5-ethyl-β-D-glucuronide at […]. After hermetic closure and agitation to the vortex of the vial, an SPME (SPME in semi-polar phase of the Car/PDMS, 1 cm long and 75 μm thick type with a 24 ga needle; Supelco) of the gas phase above the sample of a duration of 30 mi is carried out after 2 h, 4 h and 7 h of reaction. Each kinetic point requires a vial reaction, and is carried out in duplicate. The VOCs trapped on the SPME fiber are then analyzed by G-TQMS. GC-TMS detection of the ethanol isotopes (thus including ethanol-D5) is carried out with gas chromatography coupled to a triple quadrupole equipped with an E1 source (TSQ 9000, Thermo Fisher Scientific). The system is controlled by the software TSQ 9000 and the results are analyzed with the Xcalibur software (Thermo Fisher Scientific).
The limit of detection (LOD) of a model enzyme (β-glucuronidase of E. coli; liquid solution 50% glycerol, 140 U·mL^−1; Sigma Aldrich) in plasma matrix in the presence of probe D5-ethyl-β-D-glucuronide was then determined. For this, a plasma sample for which the activity of endogenous β-glucuronidase was not detectable, was added to enzyme concentrations ranging from […] to 1.10^−13 mol·L ^−1. The amount of ethanol-D5 released was monitored before adding probe and then after 2.5, 4.5 and 7.5 h of reaction at 30° C.

N-acetyl glucosaminidase = test: Specificity study: hydrolysis of probes by the enzyme; format: biochemical
Method: (§5) The detection performances of this compound in the presence of ethanol and ethanol-D5 were then verified. […] The detection ranges of ethanol-D5 and ethanol-^13C-D5 were then carried out under SPME sampling conditions developed for biological samples (30 min of sampling at 30° C.). The two isotopes were present in mixtures in solution. The limits of detection obtained are respectively […]. The SPME-GC-TQMS method therefore allows a sharp differentiation of the two isotopes according to their mass fragmentation. An experimental study was then carried out in order to evaluate the affinity of the D5-ethyl-β-D-glucuronide and ^13C-D5-ethyl-N-acetylglucosamine for their respective enzyme (β-glucuronidase and N-acetyl glucosaminidase). For this, the efficacy of hydrolysis of each of these enzymes was studied in the presence of their respective probe (FIG. 6) then in the presence of the substrate probe of its partner (FIG. 7). […] In the presence of the two substrates, each enzyme gives a signal only for the probe specific to it (FIG. 8).

β-glucuronidase [3] = biological target: β-glucuronidase (Escherichia coli, UniProt P05804); test: as above; format: biochemical
Method: as §5

[4] = Spontaneous hydrolysis of probes in buffer solution / during the reaction; format: physicochemical; conditions: acetate buffer, maximum concentration
Method: According to the plasma protocol described above, the probes were used to detect the six enzymatic activities in these samples. To summarize, an aliquot of 25 μL of plasma will be sampled and inserted into a 2 mL vial with an insert. This biological sample was added from 61.4 μL buffer solution (pH 5), 3.6 μL of protease inhibitor (1×) and 10 μL of one or the other of the cocktails. After hermetic closure and agitation to the vortex of the vial, an SPME (SPME in semi-polar phase of the Car/PDMS, 1 cm long and 75 μm thick type with a 24 ga needle, Supelco) of the gas phase above the sample of a duration of 30 min will be carried out after 2 h, 4 h and 7 h of reaction. Each kinetic point requires a vial reaction, and was carried out in duplicate. The VOCs trapped on the SPME fiber are then analyzed by GC-TQMS according to the parameters defined in Tables 4 and 5. Blank cocktails (cocktails in acetate buffer with no plasma) and plasma blanks (plasmas with an acetate buffer without cocktail) were carried out every day of analysis.
The responses of the probes in the plasma samples were compared to their responses in so-called “blank” samples and corresponding to the probes added to the acetate buffer alone.

β-glucuronidase [5] = biological target: T2, β-glucuronidase (Homo sapiens, UniProt P08236); test: Plasma protocol: labeled ethanol released in headspace of plasma after adding probe; format: biochemical
T2 construct: from tissue; host or cells: human blood plasma
T2 sequence (P08236 23-651): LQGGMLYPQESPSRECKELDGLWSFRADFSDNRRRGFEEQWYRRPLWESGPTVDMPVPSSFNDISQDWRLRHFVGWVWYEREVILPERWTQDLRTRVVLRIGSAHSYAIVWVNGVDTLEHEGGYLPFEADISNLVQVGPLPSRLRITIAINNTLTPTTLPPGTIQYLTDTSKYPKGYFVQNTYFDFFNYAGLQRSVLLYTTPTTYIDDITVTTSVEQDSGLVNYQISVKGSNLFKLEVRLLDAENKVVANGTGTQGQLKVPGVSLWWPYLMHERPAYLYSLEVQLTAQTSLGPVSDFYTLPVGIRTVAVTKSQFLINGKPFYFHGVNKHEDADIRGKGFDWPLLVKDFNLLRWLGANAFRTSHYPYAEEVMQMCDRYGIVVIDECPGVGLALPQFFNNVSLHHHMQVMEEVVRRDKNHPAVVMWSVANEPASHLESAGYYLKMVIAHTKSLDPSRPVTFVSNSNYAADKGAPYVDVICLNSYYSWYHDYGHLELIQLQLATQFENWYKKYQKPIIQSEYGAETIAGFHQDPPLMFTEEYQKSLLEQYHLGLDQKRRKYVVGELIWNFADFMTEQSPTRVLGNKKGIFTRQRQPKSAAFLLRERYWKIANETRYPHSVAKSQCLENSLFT
Method: as §4
Blood samples were taken by the caregiver associated with the oncological service, then collected and pretreated with the CIC. This study included samples of plasma taken from 11 patients suffering from breast cancer and 11 patients suffering from lung cancer.
These patients were diagnosed, but had at the time of sampling not yet received treatment. Their response was compared to that obtained from the plasma of 4 healthy patients. The results were compared to an experimental blank wherein the probe was added, but the enzyme was not present (FIG. 3). […]
After adding the 4 probes (according to the above protocol), the quantity of the 4 isotopes of the ethanol released above the samples of the patients was measured over time. […]
as §3

α-Glucosidase = test: as above; format: biochemical, human; conditions: Ethanol-D4; Cocktail 1; 10^−3/10^−4 mol·L^−1; Splitless
Source text: as §1, §2, §3

T1 sequence (P05804 whole entry): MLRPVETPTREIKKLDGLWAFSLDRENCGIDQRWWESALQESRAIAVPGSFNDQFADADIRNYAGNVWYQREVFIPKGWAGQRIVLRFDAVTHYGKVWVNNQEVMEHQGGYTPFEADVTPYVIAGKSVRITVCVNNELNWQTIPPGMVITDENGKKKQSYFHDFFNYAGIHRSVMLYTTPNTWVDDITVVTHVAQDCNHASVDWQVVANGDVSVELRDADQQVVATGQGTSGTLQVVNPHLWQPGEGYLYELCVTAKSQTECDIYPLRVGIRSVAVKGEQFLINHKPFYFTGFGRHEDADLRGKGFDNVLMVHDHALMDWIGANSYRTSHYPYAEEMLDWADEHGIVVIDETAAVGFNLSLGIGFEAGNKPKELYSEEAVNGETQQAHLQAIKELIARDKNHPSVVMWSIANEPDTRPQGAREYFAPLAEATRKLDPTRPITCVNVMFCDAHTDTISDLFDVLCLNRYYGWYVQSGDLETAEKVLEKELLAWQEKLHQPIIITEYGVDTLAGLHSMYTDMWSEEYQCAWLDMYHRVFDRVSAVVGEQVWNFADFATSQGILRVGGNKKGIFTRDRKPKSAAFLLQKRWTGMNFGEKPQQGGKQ
Sequence of β-glucuronidase (Escherichia coli, UniProt P05804) (P05804 whole entry): as above

Which “Plasma response range (u.a.)” value (α-Mannosidase) does the source give for `CCC[C@H]1C[C@H](CC)[C@@H](C)[C@H](C)[C@@H]1C` [drawing 26] here?
Its value is 1000-50000 u.a.

What does the source list for `[2H]C([2H])([2H])C([2H])([2H])O[C@@H]1O[C@H](C(=O)O)[C@@H](O)[C@H](O)[C@H]1O` [D5-ethyl-β-D-glucuronide]?
ethanol-D5 release for cancer tissues ([1]; MDA-MB-231 and KB tumor biopsies): release of this isotope was detected; ethanol-D5 response on healthy tissues ([1]; mouse liver biopsies): no response; LOD lower than threshold value of the reference detection method (para-nitrophenol glucuronide, UV) [2]: 100 times; minimum quantity of detectable enzyme ([2]; plasma matrix): 1.10^−18 mol; concentration at which β-glucuronidase can be detected in plasma ([2]; plasma, first results): less than 5.10^−13 M; hydrolysis of probe by N-acetyl glucosaminidase (labeled ethanol signal) (N-acetyl glucosaminidase): does not hydrolyze; hydrolysis of probe by β-glucuronidase (labeled ethanol signal) (β-glucuronidase [3]): has hydrolyzed its own probe; spontaneous hydrolysis when placing in buffer solution [4]: significant spontaneous hydrolysis; amount of ethanol-D5 released above plasma of patients with cancer compared to blanks and healthy patients (β-glucuronidase [5]; 11 breast cancer, 11 lung cancer patients, 4 healthy patients): significantly higher; discernment between healthy patients and cancer patients (β-glucuronidase [5]; cocktail of 4 probes, plasma of breast and lung cancer patients vs 4 healthy): allow clear discernment between healthy patients and cancer patients

With `CCC[C@H]1C[C@H](CC)[C@@H](C)[C@H](C)[C@@H]1C` [drawing 22] as the compound, how does the “Plasma response range (u.a.)” value (α-Glucosidase) read?
The value was 0-3000 u.a.

— patent US20240361317A1, “PROBES BASED ON VOLATILE ORGANIC COMPOUNDS AND USES THEREOF FOR THE DIAGNOSIS AND PROGNOSIS OF PATHOLOGICAL CONDITIONS” (Centre National de la Recherche Scientifique, priority 2021, published 2024)
